Data: patent publication US20040028684A1, “Cancer diagnosis and assays for screening anti-cancer agents” (priority 2000, published 2004)

System: RMP1
Experiment: Rapamycin sensitive signaling on human RMP1: immunoblot of RMP in insulin-induced HEK293 cells
Type: cell-based
Conditions: serum-deprived HEK293 cells, 50 nM insulin, after 1 h induction, maintained throughout 8 h, no rapamycin
Description: Human Embryonic kidney (HEK293) cells are grown in DMEM+10% FCS. Exponentially growing HEK 293 cells are deprived of serum overnight, and then induced with 50 nM insulin in the presence or absence of 20 nM rapamycin. Protein extracts were prepared from cells harvested at 0 h, 1 h, 2 h, 4 h and 8 h after insulin induction. The cell extracts were subjected to SDS-polyacrylamide gel electrophoresis and the resulting gels were analyzed by immuno-blotting using a rabbit polyclonal anti-human RMP antibody. Antibodies specific for RMP are easily prepared using standard laboratory practices. A secondary antibody specific for rabbit antibodies, labelled was used to visualize RMP on the immunoblot using routine procedures.
In the presence of insulin and amino acids (in the culture medium in this example), RMP is present as a slower migrating form, indicating a phosphorylated form. Under these conditions, the cells continue to synthesize […]. With the addition of rapamycin, RMP is present as a fast migrating form and blocks the synthesis of […]

With insulin the “slower migrating form of RMP” value was “induced”.
